In the supplement of paper PMC10307832:

Columns and labels:
Experiment in all cases: relative viability (nuclei count vs DMSO), 5 days (fraction); higher = more cells survive
Trametinib + Crizotinib = compound: CC(=O)Nc1cccc(-n2c(=O)n(C3CC3)c(=O)c3c(Nc4ccc(I)cc4F)n(C)c(=O)c(C)c32)c1 [Trametinib] + C[C@@H](Oc1cc(-c2cnn(C3CCNCC3)c2)cnc1N)c1c(Cl)ccc(F)c1Cl [Crizotinib] (partner 1 µM)
How it was run: (§1)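 Lung cancer cell lines in 1536-well plates got either a single drug or a fixed anchor-drug dose together with five library-drug doses (not always all listed) in √10 steps, by pin tool, on the day after seeding. Nuclei were counted after 5 days, and relative viability is the treated-to-vehicle ratio of nuclei counts. Values are medians of duplicate plates.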

Trametinib + Linsitinib = compound: CC(=O)Nc1cccc(-n2c(=O)n(C3CC3)c(=O)c3c(Nc4ccc(I)cc4F)n(C)c(=O)c(C)c32)c1 [Trametinib] + C[C@]1(O)C[C@@H](c2nc(-c3ccc4ccc(-c5ccccc5)nc4c3)c3c(N)nccn32)C1 [Linsitinib] (partner 1 µM)
How it was run: as §1

[1] = compound: CN1C=C(C2=CC=CC=C21)/C=C\3/C4=C(C=CC=N4)NC3=O + C[C@@H](Oc1cc(-c2cnn(C3CCNCC3)c2)cnc1N)c1c(Cl)ccc(F)c1Cl [Crizotinib] (partner 1 µM)
How it was run: as §1

[2] = compound: CN1C=C(C2=CC=CC=C21)/C=C\3/C4=C(C=CC=N4)NC3=O + Nc1nc2[nH]cc(CCc3ccc(C(=O)N[C@@H](CCC(=O)O)C(=O)O)cc3)c2c(=O)[nH]1 [Pemetrexed] (partner 0.2 µM)
How it was run: as §1

Cell Line: HOP-62
- relative viability (Trametinib + Crizotinib; first compound 0.0025 µM): 0.925
- relative viability (Trametinib + Crizotinib; first compound 0.007906 µM): 0.932
- relative viability (Trametinib + Crizotinib; first compound 0.025 µM): 0.581
- relative viability (Trametinib + Crizotinib; first compound 0.07906 µM): 0.502
- relative viability (Trametinib + Crizotinib; first compound 0.25 µM): 0.209
- relative viability (Trametinib + Linsitinib; first compound 0.0025 µM): 1.06
- relative viability (Trametinib + Linsitinib; first compound 0.007906 µM): 0.921
- relative viability (Trametinib + Linsitinib; first compound 0.025 µM): 0.705
- relative viability (Trametinib + Linsitinib; first compound 0.07906 µM): 0.487
- relative viability (Trametinib + Linsitinib; first compound 0.25 µM): 0.152
- relative viability ([1]; first compound 0.02 µM): 0.902
- relative viability ([1]; first compound 0.06325 µM): 0.938
- relative viability ([1]; first compound 0.2 µM): 0.789
- relative viability ([1]; first compound 0.6325 µM): 0.918
- relative viability ([1]; first compound 2 µM): 1.01
- relative viability ([2]; first compound 0.02 µM): 0.285
- relative viability ([2]; first compound 0.06325 µM): 0.299
- relative viability ([2]; first compound 0.6325 µM): 0.357
- relative viability ([2]; first compound 2 µM): 0.366

Cell Line: LC-2-ad
- relative viability (Trametinib + Crizotinib; first compound 0.0025 µM): 0.47
- relative viability (Trametinib + Crizotinib; first compound 0.007906 µM): 0.463
- relative viability (Trametinib + Crizotinib; first compound 0.025 µM): 0.422
- relative viability (Trametinib + Crizotinib; first compound 0.25 µM): 0.294
- relative viability (Trametinib + Linsitinib; first compound 0.0025 µM): 0.871
- relative viability (Trametinib + Linsitinib; first compound 0.007906 µM): 0.716
- relative viability (Trametinib + Linsitinib; first compound 0.025 µM): 0.729
- relative viability (Trametinib + Linsitinib; first compound 0.07906 µM): 0.502
- relative viability (Trametinib + Linsitinib; first compound 0.25 µM): 0.381
- relative viability ([1]; first compound 0.02 µM): 0.439
- relative viability ([1]; first compound 0.06325 µM): 0.468
- relative viability ([1]; first compound 0.6325 µM): 0.409
- relative viability ([1]; first compound 2 µM): 0.686
- relative viability ([2]; first compound 0.02 µM): 0.287
- relative viability ([2]; first compound 0.06325 µM): 0.255
- relative viability ([2]; first compound 0.2 µM): 0.26
- relative viability ([2]; first compound 0.6325 µM): 0.271
- relative viability ([2]; first compound 2 µM): 0.285

Cell Line: SW 900
- relative viability ([2]; first compound 0.02 µM): 0.474
- relative viability ([2]; first compound 0.6325 µM): 0.512
- relative viability ([2]; first compound 2 µM): 0.486

Cell Line: NCI-H322M
- relative viability (Trametinib + Crizotinib; first compound 0.0025 µM): 0.943
- relative viability (Trametinib + Crizotinib; first compound 0.007906 µM): 0.986
- relative viability (Trametinib + Crizotinib; first compound 0.025 µM): 0.686
- relative viability (Trametinib + Crizotinib; first compound 0.07906 µM): 0.697
- relative viability (Trametinib + Crizotinib; first compound 0.25 µM): 1.04
- relative viability (Trametinib + Linsitinib; first compound 0.0025 µM): 0.896
- relative viability (Trametinib + Linsitinib; first compound 0.007906 µM): 0.664
- relative viability (Trametinib + Linsitinib; first compound 0.025 µM): 0.601
- relative viability (Trametinib + Linsitinib; first compound 0.07906 µM): 0.519
- relative viability (Trametinib + Linsitinib; first compound 0.25 µM): 0.459
- relative viability ([1]; first compound 0.02 µM): 0.827
- relative viability ([1]; first compound 0.06325 µM): 0.841
- relative viability ([1]; first compound 0.2 µM): 0.876
- relative viability ([1]; first compound 0.6325 µM): 0.902
- relative viability ([1]; first compound 2 µM): 0.933
- relative viability ([2]; first compound 0.02 µM): 0.606
- relative viability ([2]; first compound 0.06325 µM): 0.575
- relative viability ([2]; first compound 0.2 µM): 0.598
- relative viability ([2]; first compound 0.6325 µM): 0.673
- relative viability ([2]; first compound 2 µM): 0.641

Cell Line: SK-LU-1
- relative viability (Trametinib + Crizotinib; first compound 0.0025 µM): 0.976
- relative viability (Trametinib + Crizotinib; first compound 0.007906 µM): 0.87
- relative viability (Trametinib + Crizotinib; first compound 0.025 µM): 0.775
- relative viability (Trametinib + Crizotinib; first compound 0.07906 µM): 0.619
- relative viability (Trametinib + Crizotinib; first compound 0.25 µM): 0.371
- relative viability (Trametinib + Linsitinib; first compound 0.0025 µM): 1.18
- relative viability (Trametinib + Linsitinib; first compound 0.007906 µM): 0.965
- relative viability (Trametinib + Linsitinib; first compound 0.025 µM): 0.888
- relative viability (Trametinib + Linsitinib; first compound 0.07906 µM): 0.778
- relative viability (Trametinib + Linsitinib; first compound 0.25 µM): 0.443
- relative viability ([1]; first compound 0.02 µM): 0.619
- relative viability ([1]; first compound 0.06325 µM): 0.809
- relative viability ([1]; first compound 0.2 µM): 1.14
- relative viability ([1]; first compound 0.6325 µM): 1.07
- relative viability ([1]; first compound 2 µM): 1.1
- relative viability ([2]; first compound 0.02 µM): 0.736
- relative viability ([2]; first compound 0.06325 µM): 0.919
- relative viability ([2]; first compound 0.2 µM): 0.898
- relative viability ([2]; first compound 0.6325 µM): 1.03
- relative viability ([2]; first compound 2 µM): 0.946

Cell Line: NCI-H1734
- relative viability (Trametinib + Crizotinib; first compound 0.0025 µM): 0.644
- relative viability (Trametinib + Crizotinib; first compound 0.007906 µM): 0.622
- relative viability (Trametinib + Crizotinib; first compound 0.07906 µM): 0.493
- relative viability (Trametinib + Crizotinib; first compound 0.25 µM): 0.285
- relative viability (Trametinib + Linsitinib; first compound 0.0025 µM): 0.845
- relative viability (Trametinib + Linsitinib; first compound 0.007906 µM): 0.739
- relative viability (Trametinib + Linsitinib; first compound 0.07906 µM): 0.788
- relative viability (Trametinib + Linsitinib; first compound 0.25 µM): 0.613
- relative viability ([1]; first compound 0.02 µM): 0.665
- relative viability ([1]; first compound 0.06325 µM): 0.677
- relative viability ([1]; first compound 0.6325 µM): 0.696
- relative viability ([1]; first compound 2 µM): 0.744
- relative viability ([2]; first compound 0.02 µM): 0.348
- relative viability ([2]; first compound 0.06325 µM): 0.4
- relative viability ([2]; first compound 0.6325 µM): 0.425
- relative viability ([2]; first compound 2 µM): 0.418

Cell Line: HCC-44
- relative viability (Trametinib + Crizotinib; first compound 0.0025 µM): 0.853
- relative viability (Trametinib + Crizotinib; first compound 0.007906 µM): 0.916
- relative viability (Trametinib + Crizotinib; first compound 0.025 µM): 0.763
- relative viability (Trametinib + Crizotinib; first compound 0.07906 µM): 0.728
- relative viability (Trametinib + Crizotinib; first compound 0.25 µM): 0.526
- relative viability (Trametinib + Linsitinib; first compound 0.0025 µM): 0.734
- relative viability (Trametinib + Linsitinib; first compound 0.007906 µM): 0.592
- relative viability (Trametinib + Linsitinib; first compound 0.025 µM): 0.334
- relative viability (Trametinib + Linsitinib; first compound 0.07906 µM): 0.43
- relative viability (Trametinib + Linsitinib; first compound 0.25 µM): 0.321
- relative viability ([1]; first compound 0.02 µM): 0.793
- relative viability ([1]; first compound 0.06325 µM): 0.73
- relative viability ([1]; first compound 0.2 µM): 0.722
- relative viability ([1]; first compound 0.6325 µM): 0.712
- relative viability ([1]; first compound 2 µM): 0.715
- relative viability ([2]; first compound 0.02 µM): 0.58
- relative viability ([2]; first compound 0.06325 µM): 0.613
- relative viability ([2]; first compound 0.2 µM): 0.664
- relative viability ([2]; first compound 0.6325 µM): 0.648
- relative viability ([2]; first compound 2 µM): 0.636

Cell Line: NCI-H1703
- relative viability (Trametinib + Crizotinib; first compound 0.007906 µM): 0.495
- relative viability (Trametinib + Crizotinib; first compound 0.025 µM): 0.66
- relative viability (Trametinib + Crizotinib; first compound 0.07906 µM): 0.727
- relative viability (Trametinib + Crizotinib; first compound 0.25 µM): 0.423
- relative viability (Trametinib + Linsitinib; first compound 0.0025 µM): 0.692
- relative viability (Trametinib + Linsitinib; first compound 0.007906 µM): 0.821
- relative viability (Trametinib + Linsitinib; first compound 0.025 µM): 0.674
- relative viability (Trametinib + Linsitinib; first compound 0.07906 µM): 0.72
- relative viability (Trametinib + Linsitinib; first compound 0.25 µM): 0.352
- relative viability ([1]; first compound 0.02 µM): 0.724
- relative viability ([1]; first compound 0.06325 µM): 0.783
- relative viability ([1]; first compound 0.2 µM): 0.556
- relative viability ([1]; first compound 0.6325 µM): 0.699
- relative viability ([1]; first compound 2 µM): 0.604
